# From patent publication US20260193268A1, “TRICYCLIC PI3Ka INHIBITOR, PREPARATION METHOD THEREFOR, AND PHARMACEUTICAL USE THEREOF” (WIGEN BIOMEDICINE TECHNOLOGY (SHANGHAI) CO., LTD., priority 2022, published 2026)
# pIC50: −log10 of the molar value. Like-named read-outs stand apart in the source and are kept apart here.
# What was measured:
# [1] = biological target: PI3Kγ (Homo sapiens, UniProt P48736); assay: ADP-Glo kinase assay, in vitro inhibition of PI3Kγ kinase activity; type: biochemical; settings: 25 μM ATP, PIP2 50 μg/mL, room temperature 1 h, read-out: Inhibitory activity against PI3K kinases, PI3Kγ (IC50)
# Protocol: (§1) Biological Example 1. Assay for In Vitro Inhibition of PI3Kα, PI3Kβ, PI3Kγ, and PI3Kδ Kinase Activity by Compounds of the Present Disclosure
# (§2) The experiment was performed using the ADP-Glo Kinase Assay kit according to the instructions. The following buffer solution was prepared: 50 mM HEPES, pH 7.5, 3 mM MgCl2, 1 mM EGTA, 100 mM NaCl, 0.03% CHAPS, 2 mM DTT. Test compound samples were dissolved in DMSO, diluted 3-fold at a starting concentration, e.g., 10 μM, and added to the screening system. A DMSO control and a kinase-free control were set simultaneously. The optimal concentrations of PI3Kα, PI3Kδ, PI3Kβ, and PI3Kγ enzymes, substrate (PIP2), and ATP were prepared with buffer. The enzyme reaction system contained: buffer, 25 μM ATP, kinase substrate (PIP2, 50 μg/mL), and kinases PI3Kα (0.15 μg/mL), PI3Kδ (1.2 μg/mL), PI3Kβ (0.3 μg/mL), PI3Kγ (2.5 μg/mL), and the like. The reaction system was reacted at room temperature for 1 h. The reaction was terminated by adding a termination reagent (ADP-Glo reagent, 5 μL), and the ADP content in the system was detected using a detection reagent (Kinase Detection Reagent, 10 μL). Signal data were collected using an Envision instrument. The inhibition rate was calculated according to the following equation: % inhibition=(DMSO control signal value−sample signal value)/(DMSO control signal value−kinase-free control signal value). The IC50 values were obtained by fitting a curve using the equation: Y=Bottom+(Top−Bottom)/(1+(IC50/X)^HillSlope).
# [2] = system: HCC1954 cells (with PI3Kα H1047R mutation); assay: In vitro inhibition of HCC1954 cell proliferation (CellTiter-Lumi); type: cell-based; settings: HCC1954 cells, 144 h, CellTiter-Lumi
# Protocol: Assay for In Vitro Inhibition of HCC1954 Cell Proliferation by Compounds of the Present Disclosure
# The growth of the cells was evaluated, and the IC50 for the inhibition of cell growth by the compounds was calculated.
# [3] = system: MCF-7 cells (with PI3Kα E545K mutation); assay: In vitro inhibition of MCF-7 cell proliferation (CellTiter-Lumi); type: cell-based; settings: Homo sapiens, MCF7, 144 h
# How it was run: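 Growth IC50 derived from ATP luminescence (CellTiter-Lumi) after 144 h exposure of MCF-7 cells carrying PI3Kα E545K, plated 2000 cells/well and dosed with serial dilutions one day after seeding.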
# [4] = biological target: PI3Kδ (Homo sapiens, UniProt O00329); assay: ADP-Glo kinase assay, in vitro inhibition of PI3Kδ kinase activity; type: biochemical; settings: 25 μM ATP, PIP2 50 μg/mL, room temperature 1 h, read-out: Inhibitory activity against PI3K kinases, PI3Kδ (IC50)
# Protocol: as §1, §2
# [5] = biological target: PI3Kα (Homo sapiens, UniProt P42336); assay: ADP-Glo kinase assay, in vitro inhibition of PI3Kα kinase activity; type: biochemical; settings: 25 μM ATP, PIP2 50 μg/mL, room temperature 1 h, read-out: Inhibitory activity against PI3K kinases, PI3Kα (IC50)
# Protocol: as §1, §2
# [6] = biological target: PI3Kβ (Homo sapiens, UniProt P42338); assay: ADP-Glo kinase assay, in vitro inhibition of PI3Kβ kinase activity; type: biochemical; settings: 25 μM ATP, PIP2 50 μg/mL, room temperature 1 h, read-out: Inhibitory activity against PI3K kinases, PI3Kβ (IC50)
# Protocol: as §1, §2
# [7] = Homo sapiens, HCC1954, 144 h, numeric values, read-out: Inhibitory activity against HCC1954 cells (IC50)
# [8] = numeric values, read-out: Inhibitory activity against MCF-7 cells (IC50)
# [9] = Homo sapiens, HCC1954, 144 h, class symbols, read-out: Inhibitory activity against HCC1954 cells (IC50), class symbols
# [10] = class symbols, read-out: Inhibitory activity against MCF-7 cells (IC50), class symbols
# Sequence of PI3Kδ (O00329 whole entry, species assumed): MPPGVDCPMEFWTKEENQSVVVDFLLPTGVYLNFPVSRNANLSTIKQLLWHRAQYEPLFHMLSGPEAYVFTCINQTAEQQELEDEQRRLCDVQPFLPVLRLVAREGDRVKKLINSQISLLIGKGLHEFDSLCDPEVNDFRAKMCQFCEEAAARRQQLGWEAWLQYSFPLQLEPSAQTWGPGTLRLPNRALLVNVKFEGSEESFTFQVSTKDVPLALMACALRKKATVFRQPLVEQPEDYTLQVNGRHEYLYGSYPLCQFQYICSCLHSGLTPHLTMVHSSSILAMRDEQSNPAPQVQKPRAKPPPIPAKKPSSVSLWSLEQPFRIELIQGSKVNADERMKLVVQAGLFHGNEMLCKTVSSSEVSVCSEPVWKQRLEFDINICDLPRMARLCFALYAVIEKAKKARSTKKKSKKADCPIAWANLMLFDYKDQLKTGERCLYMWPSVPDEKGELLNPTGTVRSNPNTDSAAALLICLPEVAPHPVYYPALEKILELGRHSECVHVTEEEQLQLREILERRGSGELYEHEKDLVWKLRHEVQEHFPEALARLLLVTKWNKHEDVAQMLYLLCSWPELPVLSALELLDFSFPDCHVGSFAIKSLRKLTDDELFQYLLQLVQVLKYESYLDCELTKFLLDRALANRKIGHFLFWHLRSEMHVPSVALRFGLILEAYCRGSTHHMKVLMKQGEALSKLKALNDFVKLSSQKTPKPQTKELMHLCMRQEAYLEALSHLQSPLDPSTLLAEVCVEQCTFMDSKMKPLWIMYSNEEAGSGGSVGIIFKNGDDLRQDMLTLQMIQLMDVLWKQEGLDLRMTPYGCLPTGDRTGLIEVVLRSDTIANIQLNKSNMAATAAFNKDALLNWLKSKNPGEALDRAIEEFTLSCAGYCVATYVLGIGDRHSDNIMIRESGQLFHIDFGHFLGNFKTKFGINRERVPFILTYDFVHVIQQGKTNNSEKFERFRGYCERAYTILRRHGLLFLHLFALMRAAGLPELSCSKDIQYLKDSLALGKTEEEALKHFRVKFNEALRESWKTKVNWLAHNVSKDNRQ
# Sequence of PI3Kδ (P27986 whole entry partner, species assumed): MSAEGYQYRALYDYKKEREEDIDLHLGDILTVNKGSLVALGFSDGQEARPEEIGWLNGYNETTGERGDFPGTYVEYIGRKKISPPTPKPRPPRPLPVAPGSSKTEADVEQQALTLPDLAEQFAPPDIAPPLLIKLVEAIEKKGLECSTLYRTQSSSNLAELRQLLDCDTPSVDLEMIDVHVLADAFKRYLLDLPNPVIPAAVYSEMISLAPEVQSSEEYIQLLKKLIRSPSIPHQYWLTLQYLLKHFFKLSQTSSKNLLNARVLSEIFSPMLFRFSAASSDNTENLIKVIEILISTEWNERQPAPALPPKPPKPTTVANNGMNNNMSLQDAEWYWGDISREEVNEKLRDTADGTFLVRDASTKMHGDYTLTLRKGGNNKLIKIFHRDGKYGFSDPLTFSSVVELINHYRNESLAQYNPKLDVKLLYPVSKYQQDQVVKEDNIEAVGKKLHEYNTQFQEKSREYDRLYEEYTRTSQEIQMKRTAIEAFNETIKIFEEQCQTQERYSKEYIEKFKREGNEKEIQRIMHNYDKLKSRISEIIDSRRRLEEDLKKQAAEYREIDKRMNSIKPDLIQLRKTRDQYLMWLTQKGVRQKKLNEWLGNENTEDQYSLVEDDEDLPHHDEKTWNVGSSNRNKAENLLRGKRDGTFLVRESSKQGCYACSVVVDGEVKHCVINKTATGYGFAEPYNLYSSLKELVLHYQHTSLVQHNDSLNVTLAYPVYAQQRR
# Sequence of PI3Kα (P42336 whole entry): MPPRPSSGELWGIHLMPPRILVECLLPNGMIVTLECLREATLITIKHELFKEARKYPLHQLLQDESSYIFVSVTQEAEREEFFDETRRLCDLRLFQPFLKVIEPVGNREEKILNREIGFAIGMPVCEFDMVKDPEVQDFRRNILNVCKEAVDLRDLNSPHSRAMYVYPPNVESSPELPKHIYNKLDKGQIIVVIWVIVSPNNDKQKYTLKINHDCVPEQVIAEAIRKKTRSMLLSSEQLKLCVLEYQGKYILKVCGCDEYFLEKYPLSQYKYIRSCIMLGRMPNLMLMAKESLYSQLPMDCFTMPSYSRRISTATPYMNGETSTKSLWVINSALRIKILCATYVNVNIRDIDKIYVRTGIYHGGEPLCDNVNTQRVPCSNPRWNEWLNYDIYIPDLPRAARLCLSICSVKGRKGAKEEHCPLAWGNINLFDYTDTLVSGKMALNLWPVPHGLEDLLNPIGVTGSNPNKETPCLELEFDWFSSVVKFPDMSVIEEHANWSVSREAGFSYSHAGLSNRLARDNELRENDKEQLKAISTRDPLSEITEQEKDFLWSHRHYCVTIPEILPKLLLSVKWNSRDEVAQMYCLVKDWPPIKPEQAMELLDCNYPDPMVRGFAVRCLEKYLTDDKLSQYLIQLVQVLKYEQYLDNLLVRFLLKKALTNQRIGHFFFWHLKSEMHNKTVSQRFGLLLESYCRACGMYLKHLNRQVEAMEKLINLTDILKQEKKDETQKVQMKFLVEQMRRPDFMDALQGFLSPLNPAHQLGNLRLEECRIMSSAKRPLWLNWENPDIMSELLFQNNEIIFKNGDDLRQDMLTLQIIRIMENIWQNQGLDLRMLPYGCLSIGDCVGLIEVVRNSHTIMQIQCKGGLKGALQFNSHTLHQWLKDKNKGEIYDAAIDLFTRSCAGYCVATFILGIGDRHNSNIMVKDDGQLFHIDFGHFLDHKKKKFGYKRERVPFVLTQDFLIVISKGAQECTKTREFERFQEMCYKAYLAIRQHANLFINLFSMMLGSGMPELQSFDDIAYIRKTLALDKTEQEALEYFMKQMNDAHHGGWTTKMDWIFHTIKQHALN
# Sequence of PI3Kα (P27986 whole entry partner): as the sequence (P27986 whole entry partner, species assumed) above
# Sequence of PI3Kγ (P48736 whole entry, species assumed): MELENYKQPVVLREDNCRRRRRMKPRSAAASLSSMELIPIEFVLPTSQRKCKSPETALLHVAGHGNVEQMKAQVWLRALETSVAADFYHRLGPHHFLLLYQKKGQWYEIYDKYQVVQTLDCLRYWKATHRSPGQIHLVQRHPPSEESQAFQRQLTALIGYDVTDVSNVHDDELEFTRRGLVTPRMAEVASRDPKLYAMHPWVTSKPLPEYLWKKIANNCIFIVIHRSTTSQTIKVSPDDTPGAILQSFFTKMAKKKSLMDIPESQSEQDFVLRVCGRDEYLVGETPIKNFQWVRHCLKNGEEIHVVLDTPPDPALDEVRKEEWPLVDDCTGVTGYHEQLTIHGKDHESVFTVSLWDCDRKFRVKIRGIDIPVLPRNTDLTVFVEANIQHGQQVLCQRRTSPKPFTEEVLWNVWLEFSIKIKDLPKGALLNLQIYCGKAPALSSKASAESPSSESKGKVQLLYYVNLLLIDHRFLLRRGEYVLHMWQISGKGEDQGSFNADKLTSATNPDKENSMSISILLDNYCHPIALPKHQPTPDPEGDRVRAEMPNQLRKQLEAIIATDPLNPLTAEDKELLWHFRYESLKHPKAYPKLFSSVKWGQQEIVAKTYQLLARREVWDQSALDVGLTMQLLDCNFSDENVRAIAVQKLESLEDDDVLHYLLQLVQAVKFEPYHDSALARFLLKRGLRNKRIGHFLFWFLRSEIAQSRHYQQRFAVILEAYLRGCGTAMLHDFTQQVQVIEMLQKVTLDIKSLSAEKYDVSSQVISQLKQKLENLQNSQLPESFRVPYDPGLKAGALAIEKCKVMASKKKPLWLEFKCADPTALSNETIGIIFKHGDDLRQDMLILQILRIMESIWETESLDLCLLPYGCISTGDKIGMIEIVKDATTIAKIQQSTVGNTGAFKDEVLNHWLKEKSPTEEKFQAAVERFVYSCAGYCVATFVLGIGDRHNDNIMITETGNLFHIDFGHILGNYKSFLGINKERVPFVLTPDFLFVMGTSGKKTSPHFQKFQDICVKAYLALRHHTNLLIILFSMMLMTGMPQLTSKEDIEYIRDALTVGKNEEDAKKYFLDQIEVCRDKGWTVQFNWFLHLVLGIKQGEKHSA
# Sequence of PI3Kβ (P42338 whole entry, species assumed): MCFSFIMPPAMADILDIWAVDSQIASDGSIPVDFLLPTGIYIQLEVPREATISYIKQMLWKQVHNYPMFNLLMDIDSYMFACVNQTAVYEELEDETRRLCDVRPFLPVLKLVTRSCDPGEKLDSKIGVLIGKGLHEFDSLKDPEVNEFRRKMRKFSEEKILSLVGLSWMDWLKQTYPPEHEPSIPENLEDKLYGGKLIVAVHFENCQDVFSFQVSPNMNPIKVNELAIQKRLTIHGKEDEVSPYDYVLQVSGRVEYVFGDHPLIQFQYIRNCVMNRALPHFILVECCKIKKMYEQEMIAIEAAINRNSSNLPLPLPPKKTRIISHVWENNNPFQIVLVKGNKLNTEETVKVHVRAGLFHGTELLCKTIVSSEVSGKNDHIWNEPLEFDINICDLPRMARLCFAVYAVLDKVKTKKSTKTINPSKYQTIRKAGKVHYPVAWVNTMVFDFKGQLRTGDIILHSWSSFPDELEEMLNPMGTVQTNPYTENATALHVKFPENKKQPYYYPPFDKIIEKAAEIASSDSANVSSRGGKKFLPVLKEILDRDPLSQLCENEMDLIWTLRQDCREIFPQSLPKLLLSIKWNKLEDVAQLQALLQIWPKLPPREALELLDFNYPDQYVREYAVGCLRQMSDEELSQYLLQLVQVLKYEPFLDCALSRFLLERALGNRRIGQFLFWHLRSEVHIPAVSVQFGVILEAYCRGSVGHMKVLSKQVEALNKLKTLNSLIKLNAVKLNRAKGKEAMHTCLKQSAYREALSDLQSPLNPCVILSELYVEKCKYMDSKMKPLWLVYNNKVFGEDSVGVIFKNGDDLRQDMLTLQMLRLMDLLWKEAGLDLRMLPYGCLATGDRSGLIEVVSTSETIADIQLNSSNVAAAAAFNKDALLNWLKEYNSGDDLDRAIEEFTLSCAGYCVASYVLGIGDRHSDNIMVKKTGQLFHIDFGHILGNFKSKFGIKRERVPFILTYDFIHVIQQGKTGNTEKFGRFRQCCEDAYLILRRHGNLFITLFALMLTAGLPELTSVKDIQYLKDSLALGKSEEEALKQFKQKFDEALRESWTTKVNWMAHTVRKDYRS
# Sequence of PI3Kβ (P27986 whole entry partner, species assumed): as the sequence (P27986 whole entry partner, species assumed) above
SMILES,"pIC50 [2, 7]","pIC50 [3, 8]","pIC50 [2, 9]","pIC50 [3, 10]",other results
CN(C1COC1)C(C)(C)/C=C(\C#N)C(=O)Nc1ccc(N2CC(N3CCN(c4ccc5c(c4)-c4nc(N6C(=O)OC[C@H]6C(F)F)cn4CCO5)CC3)C2)cc1 [Compound 95],7.17,7.42,,,pIC50 [1]: 7.38; pIC50 [4]: 6.99; pIC50 [5]: 9.80; pIC50 [6]: 5.96
"C=CC(=O)Nc1ccc(N2CC[C@H](N3CCN(c4ccc5c(c4)-c4nc(N6C(=O)OC[C@H]6C(F)F)cn4CCO5)CC3)C2)cc1 (single isomer, unassigned) [Compound 29]",,,,,pIC50 [1]: 7.42; pIC50 [4]: 7.31; pIC50 [5]: 8.93; pIC50 [6]: 5.90
C=CC(=O)Nc1ccc(CC(=O)N2CCN(c3ccc4c(c3)-c3nc(N5C(=O)OC[C@H]5C(F)F)cn3CCO4)CC2)cc1 [Compound 1],6.99,7.74,,,pIC50 [1]: 7.68; pIC50 [4]: > 8.10; pIC50 [5]: 8.27; pIC50 [6]: 6.50
C=CC(=O)Nc1ccc(N2CC(N3CCN(c4ccc5c(c4)-c4nc(N6C(=O)OC[C@H]6C(F)F)cn4CCO5)CC3)C2)cc1 [Compound 27],8.05,9.44,,,pIC50 [1]: 7.59; pIC50 [4]: 7.12; pIC50 [5]: 9.68; pIC50 [6]: 5.53
C=CC(=O)N1CC[C@@H](C(=O)NCC(=O)N2CCN(c3ccc4c(c3)-c3nc(N5C(=O)OC[C@H]5C(F)F)cn3CCO4)CC2)C1 [Compound 2],7.01,7.55,,,pIC50 [1]: 7.36; pIC50 [4]: 7.70; pIC50 [5]: 8.14; pIC50 [6]: 6.29
COC(C)(C)C=C(C#N)C(=O)Nc1ccc(N2CC(N3CCN(c4ccc5c(c4)-c4nc(N6C(=O)OC[C@H]6C(F)F)cn4CCO5)CC3)C2)cc1 [Compound 212],,,> 7.30,> 7.30,
CC(C)(C=C(C#N)C(=O)Nc1ccc(N2CC(N3CCN(c4ccc5c(c4)-c4nc(N6C(=O)OC[C@H]6C(F)F)cn4CCO5)CC3)C2)cc1Cl)NC1COC1 [Compound 362],,,> 7.30,> 7.30,
CC(C)(C=C(C#N)C(=O)Nc1ccc(N2CC(N3CCN(c4ccc5c(c4)-c4nc(N6C(=O)OC[C@H]6C(F)F)cn4CCO5)CC3)C2)nc1)NC1COC1 [Compound 239],,,> 7.30,> 7.30,
COC(C)(C)C=C(C#N)C(=O)Nc1cnc(N2CC(N3CCN(c4ccc5c(c4)-c4nc(N6C(=O)OC[C@H]6C(F)F)cn4CCO5)CC3)C2)nc1 [Compound 267],,,> 7.30,> 7.30,
CNC1(C=C(C#N)C(=O)Nc2ccc(N3CC(N4CCN(c5ccc6c(c5)-c5nc(N7C(=O)OC[C@H]7C(F)F)cn5CCO6)CC4)C3)nc2)CC1 [Compound 255],,,> 7.30,> 7.30,
CC(C)(C=C(C#N)C(=O)Nc1ccc(N2CC(N3CCN(c4ccc5c(c4)-c4nc(N6C(=O)OC[C@H]6C(F)F)cn4CCO5)CC3)C2)c(Cl)c1)NC1COC1 [Compound 353],,,> 7.30,> 7.30,
C=CC(=O)N1CCC(C2CN(c3ccc(-c4ccc5c(c4)-c4nc(N6C(=O)OC[C@H]6C(F)F)cn4CCO5)cc3)C2)CC1 [Compound 198],,,6.00 to 7.00,7.00 to 7.30,
COCCNC(C)(C)C=C(C#N)C(=O)Nc1ccc(N2CC(N3CCN(c4ccc5c(c4)-c4nc(N6C(=O)OC[C@H]6C(F)F)cn4CCO5)CC3)C2)cc1 [Compound 218],,,> 7.30,> 7.30,
CN(C1COC1)C(C)(C)C=C(C#N)C(=O)Nc1ccc(N2CC(N3CCN(c4ccc5c(c4)-c4nc(N6C(=O)OC[C@H]6C(F)F)cn4CCO5)CC3)C2)c(F)c1 [Compound 220],,,> 7.30,> 7.30,
C=CC(=O)N1CCC(N2CC[C@H](CN3CCN(c4ccc5c(c4)-c4nc(N6C(=O)OC[C@H]6C(F)F)cn4CCO5)CC3)C2)CC1 [Compound 59],6.06,6.71,,,
CNC(C)(C)C=C(C#N)C(=O)Nc1ccc(N2CC(N3CCN(c4ccc5c(c4)-c4nc(N6C(=O)OC[C@H]6C(F)F)cn4CCO5)CC3)C2)cn1 [Compound 298],,,> 7.30,> 7.30,
CC(C)C=C(C#N)C(=O)Nc1ccc(N2CC(N3CCN(c4ccc5c(c4)-c4nc(N6C(=O)OC[C@H]6C(F)F)cn4CCO5)CC3)C2)cc1 [Compound 144],7.26,7.66,,,

SMILES,"pIC50 [2, 7]","pIC50 [3, 8]","pIC50 [2, 9]","pIC50 [3, 10]",other results
CN(C1COC1)C(C)(C)C=C(C#N)C(=O)Nc1ccc(N2CC(N3CCN(c4ccc5c(c4)-c4nc(N6C(=O)OC[C@H]6C(F)F)cn4CCO5)CC3)C2)nn1 [Compound 295],,,> 7.30,> 7.30,
C=CC(=O)Nc1cnc(N2CC(N3CCN(c4ccc5c(c4)-c4nc(N6C(=O)OC[C@H]6C(F)F)cn4CCO5)CC3)C2)nc1 [Compound 133],8.37,9.40,,,
C=C(C)C(=O)Nc1ccc(N2CC(CN3CCN(c4ccc5c(c4)-c4nc(N6C(=O)OC[C@H]6C(F)F)cn4CCO5)CC3)C2)cc1 [Compound 45],< 6.00,6.61,,,
"C[C@H](Nc1ccc2c(c1)OCCn1cc(N3C(=O)OC[C@H]3C(F)F)nc1-2)C(N)=O [GDC0077, GDC-0077, reference compound]",,7.26,,,"pIC50 ([2]; numeric values, read-out: Inhibitory activity against HCC1954 cells (IC50)): 7.09"
C=CC(=O)N1CCc2cc(N3CCN(c4ccc5c(c4)-c4nc(N6C(=O)OC[C@H]6C(F)F)cn4CCO5)CC3)ccc2C1 [Compound 206],,,7.00 to 7.30,> 7.30,
C=CC(=O)Nc1ccc(N2CC(N3CCN(c4ccc5c(c4)-c4nc(N6C(=O)OC[C@H]6C(F)F)cn4CCO5)CC3)C2)nc1C [Compound 216],,,> 7.30,> 7.30,
CC(C)(C=C(C#N)C(=O)Nc1ccc(N2CC(N3CCN(c4ccc5c(c4)-c4nc(N6C(=O)OC[C@H]6C(F)F)cn4CCO5)CC3)C2)c(F)c1)N1CCC1 [Compound 229],,,> 7.30,> 7.30,
Cc1nc(-c2cn3c(n2)-c2cc(N4CCN(C5CN(c6ccc(NC(=O)C(C#N)=CC(C)(C)C)cc6)C5)CC4)ccc2OCC3)n(C(C)C)n1 [Compound 340],,,> 7.30,> 7.30,
C=CC(=O)N1CC[C@@H](CN2CC3(CCN(c4ccc5c(c4)-c4nc(N6C(=O)OC[C@H]6C(F)F)cn4CCO5)CC3)C2)C1 [Compound 23],< 6.00,6.73,,,
C=CC(=O)Nc1ccc2c(c1)CCN(CC#Cc1ccc3c(c1)-c1nc(N4C(=O)OC[C@H]4C(F)F)cn1CCO3)C2 [Compound 200],,,7.00 to 7.30,> 7.30,
C=CC(=O)Nc1ccc(N2CC(N3CCN(c4cc5c(cc4F)OCCn4cc(N6C(=O)OC[C@H]6C(F)F)nc4-5)CC3)C2)cc1 [Compound 102],6.63,7.64,,,
CC(C)(C)C=C(C#N)C(=O)Nc1ccc(N2CC(N3CCN(c4ccc5c(c4)-c4nc(N6C(=O)OC[C@H]6C(F)F)c(F)n4CCO5)CC3)C2)cc1 [Compound 321],,,> 7.30,> 7.30,
C=CC(=O)N1CC(C(=O)N2CC3(CCN(c4ccc5c(c4)-c4nc(N6C(=O)OC[C@H]6C(F)F)cn4CCO5)CC3)C2)C1 [Compound 86],6.90,7.77,,,
Cc1nc(-c2cn3c(n2)-c2cc(N4CCN(C5CN(c6ccc(NC(=O)C(C#N)=CC(C)(C)NC(=O)OC(C)(C)C)cc6F)C5)CC4)ccc2OCC3)n(C(C)C)n1 [Compound 374],,,> 7.30,> 7.30,
C=CC(=O)Nc1ccc(CCC(=O)N2CCN(c3ccc4c(c3)-c3nc(N5C(=O)OC[C@H]5C(F)F)cn3CCO4)CC2)cc1 [Compound 11],6.53,7.24,,,
COC(C)(C)C=C(C#N)C(=O)Nc1ccc(N2CC(N3CCN(c4ccc5c(c4)-c4nc(N6C(=O)OC[C@H]6C(F)F)cn4CCO5)CC3)C2)nc1 [Compound 249],,,> 7.30,> 7.30,
